{"source": "patent US6756368B1", "about": "“Use of cobalt chelates for treating or preventing virus infection” (The Trustees of Columbia University in the City of New York, priority 1999, dated 2004)", "key": {"HSV-1 [1]": {"test_system": "HSV-1", "format": "cell-based, HSV-1 Glasgow strain 17", "conditions": "CTC-96 added at 16 hpi, virus harvested 4 hours later"}, "influenza virus": {"test_system": "influenza virus", "test": "Influenza virus plaque assay on MDCK cells", "format": "cell-based, influenza virus strain PR8", "conditions": "magnitude not quantifiable"}, "HSV-1 [2]": {"test_system": "HSV-1", "test": "Adsorption assay, 3H labeled HSV-1 binding to Vero cells", "conditions": "50 μg/ml, 4° C., MOI 100"}, "poliovirus": {"test_system": "poliovirus", "format": "cell-based, poliovirus strain P1 Mahoney"}, "Vero cells": {"test_system": "Vero cells", "test": "Cytotoxic effect on Vero cell monolayers"}, "VZV": {"test_system": "VZV", "test": "VZV plaque formation", "format": "cell-based", "conditions": "data not shown"}, "HSV-1 [3]": {"test_system": "HSV-1", "test": "Fractionation and in situ localization of virus DNA", "format": "cell-based, HSV-1 Glasgow strain 17"}, "HSV-1 [4]": {"test_system": "HSV-1", "test": "Fluorescence dequenching fusion assay with R18 labeled HSV-1", "format": "cell-based, HSV-1 Glasgow strain 17", "conditions": "50 μg/ml"}, "[5]": {"test_system": "adenovirus serotype 2 (Ad2)", "test": "Fluorescence focus assay, Ad2 on A549 cells", "format": "cell-based", "conditions": "for Percent inhibition, Adenovirus: Ad2, A549", "procedure": "A549 or 293 cell monolayers were infected with Ad2 or Ad-CMV-null at 0.1 fluorescence focus units (FFUs) per cell for 2 h in 2% BCS DMEM in the presence and absence of 50 μg/ml CTC-96. At 29 h postinfection the plates were washed twice with PBS and fixed with methanol for 4 min at room temperature. Cells were washed twice with PBS, incubated in 500 μl 1:100 rabbit polyclonal anti-adenovirus serum in PBS for 30 min at room temperature and washed with PBS. Plates were then incubated in 500 μl 1:40 goat anti-rabbit IgG conjugated FITC in PBS. Foci were visualized using a Leitz Dialux microscope with an optical system for the selective visualization of FITC and then counted.\nA549s were plated on 35 mm dishes at 8×10^5 cell/plate in 10% FBS DMEM\nadded 19.25 μl stock to 50 μl total of each respective media (+/− 0, 5, 25 or 50 μg/ml CTC96)\nAfter 2 h-added 3 ml of each respective media\nIncubated @37° C. for 28 h (total)"}, "[6]": {"conditions": "50 μg/ml of CTC-96; cited from earlier work"}, "HSV-1 [7]": {"test_system": "HSV-1"}, "HSV-1 [8]": {"test_system": "HSV-1", "test": "Virus entry assay, αTIF immunofluorescence", "format": "cell-based, HSV-1 Glasgow strain 17", "procedure": "(i) αTIF immunofluorescence. […] Pre-warmed media (37° C.) was added to each plate, incubated at 37° C. for the indicated times and washed twice with ice cold PBS on ice. The infected cells were fixed in 3.7% formaldehyde in PBS for 30 min at room temperature and washed with PBS. The fixed monolayers were permeabilized in −20° C. acetone at −20° C. for 10 min. Cells were washed with water and then PBS. Fixed cells were incubated in 10% normal goat serum (NGS; Roche, Indianapolis, Ind.) in 0.1% Tween 20 in PBS (PBST) for 20 min at RT and washed twice with PBST. Cover slips were then incubated in PBST containing 1% NGS and 1:200 polyclonal antibody anti-VP16 antibody (Clontech Laboratories, Inc.) for 30 min and washed 6 times with PBST. The infected cell monolayers were then incubated in PBST containing 1% NGS and 1:200 goat anti-rabbit IgG antibody conjugated to fluorescein isothiocyanate (FITC; Kirkegaard and Perry Laboratories, Inc.) for 30 min and washed 6 times with PBST. The cover slips were then mounted on slides in gel/mount solution (Biomeda, Fisher, Springfield, N.J.) and viewed with a 100× lens of a Zeiss LSM 4100 confocal laser scanning system attached to a Zeiss Axiovert 100TV inverted microscope. Each image is the average of 1 μm Z series.\nThere are several approaches to assessing the ability of virus to adsorb and enter a cell. […]"}, "HSV-1 and 2": {"test_system": "HSV-1 and 2", "conditions": "cited from earlier work"}, "[9]": {"test_system": "vesicular stomatitis virus (VSV)", "format": "cell-based, VSV strain Indiana"}}, "note": "Several values for one entry are separate records, joined by “and”; a condition that tells them apart may be missing. Equal values may be shown once. Entries after “also recorded” stand apart in the source; their conditions may differ. Read-outs that look alike come from different tables or passages of the source."}
{"compound": "CC(/C=C(/C)[O-])=NCCN=C(C)/C=C(/C)[O-].Cc1ncc[nH]1.Cc1ncc[nH]1.[Br-].[Co+3]", "note": "[CTC-96]", "values": [{"measurement": "virus titers", "setting": "HSV-1 [1]", "result": "negligible drop in virus titers"}, {"measurement": "effect on influenza virus infection", "setting": "influenza virus", "result": "positive virus inhibitory effect; also recorded: effective against influenza virus infection"}, {"measurement": "adsorption (binding) of HSV-1 to Vero cell monolayers", "setting": "HSV-1 [2]", "result": "no effect"}, {"measurement": "% Inhibition", "setting": "poliovirus; Poliovirus (P1/Mahoney), HeLa, 50 μg/ml of CTC-96, plaque assay", "result": 40, "unit": "%"}, {"measurement": "inhibition of poliovirus", "setting": "poliovirus; first run, 50 μg/ml", "result": 42, "unit": "%"}, {"measurement": "plaques recovered relative to −CTC-96", "setting": "poliovirus; first run, 50 μg/ml", "result": 58, "unit": "%"}, {"measurement": "poliovirus plaques", "setting": "poliovirus; first run, dilution −6, 50 μg/ml in diluent, no drug in overlay", "result": "91 and 80"}, {"measurement": "poliovirus plaques", "setting": "poliovirus; first run, dilution −7, 50 μg/ml in diluent, no drug in overlay", "result": "10 and 9"}, {"measurement": "poliovirus plaques", "setting": "poliovirus; first run, dilution −8, 50 μg/ml in diluent, no drug in overlay", "result": 0}, {"measurement": "inhibition of poliovirus", "setting": "poliovirus; second run, 50 μg/ml", "result": 42, "unit": "% inhibition"}, {"measurement": "poliovirus plaques", "setting": "poliovirus; second run, dilution −6, 50 μg/ml, drug also in overlay", "result": 165}, {"measurement": "poliovirus plaques", "setting": "poliovirus; second run, dilution −7, 50 μg/ml, drug also in overlay", "result": "18 and 16"}, {"measurement": "effect on the cell monolayer", "setting": "Vero cells; 50 μg/ml, after two days of incubation", "result": "severely affected"}, {"measurement": "cytotoxicity on Vero cell monolayers", "setting": "Vero cells; prolonged exposure (several days) to 50 μg/ml", "result": "cytotoxic effects; also recorded: cytotoxicity"}, {"measurement": "VZV plaque formation", "setting": "VZV", "result": "inhibition of VZV plaque formation"}, {"measurement": "nuclear accumulation of 3H labeled HSV-1 DNA (autoradiography)", "setting": "HSV-1 [3]", "result": "prevented the nuclear accumulation"}, {"measurement": "virus DNA in nuclear and cytoplasmic fractions", "setting": "HSV-1 [3]", "result": "very little detectable virus DNA in either fraction; also recorded: no significant increase in nuclear associated HSV-1 specific DNA"}, {"measurement": "fusion of the virus envelope with the plasma membrane", "setting": "HSV-1 [4]", "result": "prevented HSV-1 fusion to the cell; also recorded: inhibits the fusion of the virion envelope with the plasma membrane; also recorded: inhibited"}, {"measurement": "fluorescence dequenching of R18", "setting": "HSV-1 [4]; up to 40 min post-warming", "result": "significantly dampened"}, {"measurement": "average foci per field", "setting": "[5]; 25 μg/ml, Plate 1", "result": "26 = 3.9"}, {"measurement": "total foci counted", "setting": "[5]; 25 μg/ml, Plate 1", "result": 102}, {"measurement": "average foci per field", "setting": "[5]; 25 μg/ml, Plate 2", "result": "? = 3.1"}, {"measurement": "total foci counted", "setting": "[5]; 25 μg/ml, Plate 2", "result": 109}, {"measurement": "average foci per field", "setting": "[5]; 50 μg/ml, Plate 1", "result": "47 = 1.6"}, {"measurement": "total foci counted", "setting": "[5]; 50 μg/ml, Plate 1", "result": 73}, {"measurement": "average foci per field", "setting": "[5]; 50 μg/ml, Plate 2", "result": "46 = 1.5"}, {"measurement": "total foci counted", "setting": "[5]; 50 μg/ml, Plate 2", "result": 70}, {"measurement": "% Inhibition", "setting": "[5]; Adenovirus (2), A549, 50 μg/ml of CTC-96, fluorescence focus assay", "result": 36, "unit": "%"}, {"measurement": "Percent inhibition, Adenovirus", "setting": "[5]; CTC-96 25 μg/ml", "result": 18, "unit": "%"}, {"measurement": "Percent inhibition, Adenovirus", "setting": "[5]; CTC-96 50 μg/ml", "result": 64, "unit": "%"}, {"measurement": "toxicity in animal models", "setting": "[6]", "result": "does not appear to be toxic"}, {"measurement": "% Inhibition", "setting": "HSV-1 [7]; HSV-1 (17), Vero, 50 μg/ml of CTC-96, plaque assay", "result": 100, "unit": "%"}, {"measurement": "No. of Plaques", "setting": "HSV-1 [7]; Initial [Drug] 0.016 μg/ml, Final [Drug] 0.016 μg/ml", "result": 114}, {"measurement": "No. of Plaques", "setting": "HSV-1 [7]; Initial [Drug] 50 μg/ml, Final [Drug] 0.0083 μg/ml", "result": 46}, {"measurement": "No. of Plaques", "setting": "HSV-1 [7]; Initial [Drug] 50 μg/ml, Final [Drug] 50 μg/ml", "result": 0}, {"measurement": "No. of Plaques", "setting": "HSV-1 [7]; Initial [Drug] 100 μg/ml, Final [Drug] 0.0016 μg/ml", "result": 23}, {"measurement": "No. of Plaques", "setting": "HSV-1 [7]; Initial [Drug] 100 μg/ml, Final [Drug] 100 μg/ml", "result": 0}, {"measurement": "resistance to HSV-1 after prior incubation of Vero cell monolayers", "setting": "HSV-1 [7]; cells preincubated with 50 μg/ml CTC-96", "result": "partial resistance"}, {"measurement": "HSV-1 plaque formation", "setting": "HSV-1 [7]; concentrations of CTC-96 >50 μg/ml", "result": "completely inhibited"}, {"measurement": "HSV-1 plaque formation", "setting": "HSV-1 [7]; dilution of the drug after adsorption of the virus", "result": "only partially inhibited"}, {"measurement": "plaque formation / infectivity after prior exposure of the virus to the drug", "setting": "HSV-1 [7]; virus incubated with 50 μg/ml 30 min, drug diluted prior to adsorption", "result": "no effect on plaque formation; also recorded: slightly reduced the infectivity"}, {"measurement": "virus survived treatment", "setting": "HSV-1 [7]; virus suspension treated with drug 1 min, then diluted to final <1 ng/ml", "result": "~50", "unit": "%"}, {"measurement": "HSV-1 plaque formation", "setting": "HSV-1 [7]; ≧50 μg/ml of CTC-96", "result": "completely inhibited"}, {"measurement": "virus entry / nuclear accumulation of αTIF", "setting": "HSV-1 [8]; 50 μg/ml, MOI 100, 30-60 min after shift to 37° C.", "result": "no evidence for virus entering the cell; also recorded: unable to accumulate in the nucleus; also recorded: prevented nuclear accumulation"}, {"measurement": "virus bound to cells", "setting": "HSV-1 [8]; 5 min after shift up to 37° C.", "result": "less virus bound"}, {"measurement": "HSV-1 production in tissue culture", "setting": "HSV-1 and 2", "result": "effective in inhibiting HSV-1 production"}, {"measurement": "rank among the CTC compounds against HSV", "setting": "HSV-1 and 2; comparison of several CTC complexes", "result": "least cytotoxic and most effective of the CTC compounds; also recorded: most potent inhibitor of HSV-1 in tissue culture and in the rabbit eye model"}, {"measurement": "inhibition of VSV", "setting": "[9]; 50 μg/ml, Vero cells", "result": 100, "unit": "%"}, {"measurement": "% Inhibition", "setting": "[9]; VSV (Indiana), Vero, 50 μg/ml of CTC-96, plaque assay", "result": 100, "unit": "%"}, {"measurement": "VSV plaques", "setting": "[9]; dilution −5, 50 μg/ml CTC96", "result": 0}, {"measurement": "VSV plaques", "setting": "[9]; dilution −6, 50 μg/ml CTC96", "result": 0}, {"measurement": "VSV plaques", "setting": "[9]; dilution −7, 50 μg/ml CTC96", "result": 0}]}
